One may read the IC50 as the concentration that inhibits the measured activity by half. What is called inhibition is the drop in the measured response relative to a control, in per cent.

The source of these data is US8785459B2, “Quinazoline compounds as kinase inhibitors” (Development Center for Biotechnology, priority 2011, dated 2014).

The target in assay [1] is B-Raf (Homo sapiens (Human), UniProt P15056). Nature of the assay: Raf kinase assay (B-Raf), [33P] incorporation into MEK1(K97R). Format: biochemical. The settings on record: for inhibition at 1 µM: 1.0 μM compound, read-out: B-Raf inhibition at 1.0 μM. In short, it runs like this: (§1)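 [33P] transfer to kinase-dead MEK1(K97R) substrate (500 ng) measured after 30 min at 30 °C in Tris pH 7.5 buffer containing 8 μM ATP. Enzyme inputs were 2 ng for C-Raf and 5 ng for B-Raf and B-Raf V600E. Duplicate 3-fold serial dilutions gave the half-maximal inhibitory concentration.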
Sequence of B-Raf (P15056 whole entry): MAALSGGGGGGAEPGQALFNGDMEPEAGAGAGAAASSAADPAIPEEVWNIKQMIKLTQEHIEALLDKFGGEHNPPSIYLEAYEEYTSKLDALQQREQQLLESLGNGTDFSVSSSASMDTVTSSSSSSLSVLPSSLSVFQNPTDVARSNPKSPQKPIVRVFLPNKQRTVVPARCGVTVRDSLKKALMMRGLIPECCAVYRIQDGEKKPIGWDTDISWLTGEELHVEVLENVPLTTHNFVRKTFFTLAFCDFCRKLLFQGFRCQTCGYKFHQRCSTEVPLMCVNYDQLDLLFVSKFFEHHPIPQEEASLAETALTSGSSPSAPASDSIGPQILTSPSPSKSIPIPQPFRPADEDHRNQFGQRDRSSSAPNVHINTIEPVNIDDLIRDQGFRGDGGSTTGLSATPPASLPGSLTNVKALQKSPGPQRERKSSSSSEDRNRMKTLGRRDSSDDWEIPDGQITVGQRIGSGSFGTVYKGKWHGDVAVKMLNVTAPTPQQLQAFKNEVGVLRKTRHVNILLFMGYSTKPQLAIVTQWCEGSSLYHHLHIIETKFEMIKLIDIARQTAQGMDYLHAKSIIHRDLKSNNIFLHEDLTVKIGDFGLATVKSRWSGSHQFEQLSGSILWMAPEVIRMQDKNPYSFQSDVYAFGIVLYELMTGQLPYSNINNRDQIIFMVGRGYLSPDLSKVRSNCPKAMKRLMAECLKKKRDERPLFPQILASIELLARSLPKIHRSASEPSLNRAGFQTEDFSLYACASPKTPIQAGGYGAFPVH

In assay [2] the test system is A549. Nature of the assay: Anti-proliferative activity, CellTiter-96 assay, A549. The settings on record: Homo sapiens, A549 cells, 72 hours incubation. Format: cell-based. On the procedure: (§2) Antiproliferative Activity
(§3) The anti-proliferative activities of the compounds with formula (I) and formula (II) with respect to four human cancer cell lines (A549, A375, MDA-MB-231, and COLO205) were measured using the CellTiter™-96 assay kit (Promega) following the manufacturer's instructions. In brief, the cells were maintained in DMEM containing 10% FCS and incubated at 37° C. in 5% CO2 atmosphere. Cells were plated at a density of 2000 cells/well of a 96-well plate for 24 h, then treated with different concentrations of the compounds, and incubated for another 72 hours. At the end of the incubation, CellTiter™-96 Aqueous One Solution Reagent (Promega) was added and incubated for another 4.0 hours. Cell viability was determined by measuring absorbance at 490 nm using EMax® microplate reader (Molecular Devices). Data were processed and analyzed using GraphPad Prism version 4.

For assay [3], the system named is A375. Nature of the assay: Anti-proliferative activity, CellTiter-96 assay, A375. It counts as cell-based. As to conditions: Homo sapiens, A-375, A375 cells, 72 hours incubation. The protocol:
as §2, §3

Assay [4] concerns MDA-MB-231. Nature of the assay: Anti-proliferative activity, CellTiter-96 assay, MDA-MB-231. It counts as cell-based. As to conditions: Homo sapiens, MDA-MB-231 cells, 72 hours incubation. The protocol:
as §2, §3

In assay [5] the target is B-Raf (V600E) (Homo sapiens (Human), UniProt P15056, V600E). Nature of the assay: Raf kinase assay (B-Raf (V600E)), [33P] incorporation into MEK1(K97R). Format: biochemical. The procedure, abridged: as §1
Sequence of B-Raf (V600E) (P15056 whole entry V600E): as the sequence (P15056 whole entry) above, with V600E counted along it
Assay [6] has as its target C-Raf (Homo sapiens (Human), UniProt P04049). Nature of the assay: Raf kinase assay (C-Raf), [33P] incorporation into MEK1(K97R). It counts as biochemical. The procedure, abridged: as §1
Assay [7] deals with COLO205. Nature of the assay: Anti-proliferative activity, CellTiter-96 assay, COLO205. It counts as cell-based. The settings on record: Homo sapiens, COLO 205, COLO205 cells, 72 hours incubation. On the procedure: as §2, §3

Sequence of C-Raf (P04049 whole entry): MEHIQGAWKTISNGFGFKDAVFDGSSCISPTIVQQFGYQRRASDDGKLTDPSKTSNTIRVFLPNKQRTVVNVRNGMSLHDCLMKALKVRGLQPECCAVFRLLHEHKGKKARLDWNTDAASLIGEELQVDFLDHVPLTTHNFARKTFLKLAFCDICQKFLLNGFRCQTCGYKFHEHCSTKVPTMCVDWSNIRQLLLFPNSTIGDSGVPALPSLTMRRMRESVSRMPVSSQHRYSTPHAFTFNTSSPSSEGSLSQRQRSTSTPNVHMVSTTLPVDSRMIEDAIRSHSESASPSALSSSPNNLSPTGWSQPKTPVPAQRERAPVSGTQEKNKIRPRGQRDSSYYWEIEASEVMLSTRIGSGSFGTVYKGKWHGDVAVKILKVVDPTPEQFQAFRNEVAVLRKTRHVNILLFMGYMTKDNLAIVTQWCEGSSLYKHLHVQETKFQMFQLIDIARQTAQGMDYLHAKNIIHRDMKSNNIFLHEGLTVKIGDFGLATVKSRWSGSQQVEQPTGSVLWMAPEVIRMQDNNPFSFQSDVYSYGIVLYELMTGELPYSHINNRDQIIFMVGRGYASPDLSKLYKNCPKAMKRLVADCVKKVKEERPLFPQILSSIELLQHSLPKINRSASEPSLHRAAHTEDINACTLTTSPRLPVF

On to `COc1ccc(-c2ccc3ncnc(Nc4cccc(O)c4)c3c2)cc1` [Compound 64, 3-(6-(4-methoxyphenyl)quinazolin-4-ylamino)phenol], for which the IC50 was 62.4 nM in assay [1]; 11 ± 3.3 µM in assay [2]; 6 ± 0.3 µM in assay [3]; 15.6 ± 0.8 µM in assay [4]; 105 nM in assay [5]; 1230 nM in assay [6]. In assay [7], this molecule yielded an IC50 of 17.3 ± 1.9 µM. The inhibition at 1 µM in assay [1] worked out at 91.9%.

Turning to `COc1cc2ncnc(Nc3cccc(O)c3)c2cc1-c1ccc(N)cc1` [Compound 68, 3-(6-(4-aminophenyl)-7-methoxyquinazolin-4-ylamino)phenol], the IC50 in assay [1] amounted to 55.8 nM; in assay [2], 7 ± 2.4 µM; in assay [3], 4.9 ± 1.7 µM; in assay [4], 11.5 ± 3.8 µM; in assay [5], 76.6 nM; in assay [6], 860 nM. Further, the IC50 in assay [7] came to 15.7 ± 4.1 µM. Also, the inhibition at 1 µM in assay [1] came out at 83.7%.

For `COc1cccc(-c2ccc3ncnc(Nc4cccc5[nH]ncc45)c3c2)c1F` [Compound 74, 6-(2-fluoro-3-methoxyphenyl)-N-(1H-indazol-4-yl)quinazolin-4-amine], the IC50 is 114 nM in assay [1]; more than 50 µM in assay [2]; more than 50 µM in assay [3]; more than 50 µM in assay [4]; 139 nM in assay [5]; 751 nM in assay [6]. For the same molecule, in assay [7], the IC50 is more than 50 µM. In assay [1], the inhibition at 1 µM turned out to be 91.2%.

In the case of `COc1ccc(-c2ccc3ncnc(Nc4cccc5[nH]ncc45)c3c2)cc1F` [Compound 75, 6-(3-fluoro-4-methoxyphenyl)-N-(1H-indazol-4-yl)quinazolin-4-amine], the IC50 in assay [1] was 157 nM; in assay [2], 9.6 ± 1.2 µM; in assay [3] it was 11.1 ± 0.8 µM; in assay [4], 11.6 ± 1.7 µM; in assay [5], 221 nM; in assay [6] it was 672 nM. This molecule registered a 50% inhibitory concentration (IC50) in assay [7] of 18.5 ± 1.1 µM. The inhibition at 1 µM in assay [1] is 85%.

For `COc1cc(-c2ccc3ncnc(Nc4cccc5[nH]ncc45)c3c2)ccc1F` [Compound 84, 6-(4-fluoro-3-methoxyphenyl)-N-(1H-indazol-4-yl)quinazolin-4-amine], the half-inhibitory concentration (IC50) in assay [1] turned out to be 172 nM; in assay [2], 8.9 ± 1.3 µM; in assay [3] it was 11.5 ± 1.9 µM; in assay [4], 14.8 ± 0.5 µM; in assay [5], 195 nM; in assay [6], 757 nM. Moreover, the 50% inhibitory concentration (IC50) in assay [7] was found to be 11.5 ± 1.3 µM. For the same molecule, the inhibition at 1 µM in assay [1] was found to be 83.1%.

Take `Fc1ccc(-c2ccc3ncnc(Nc4cccc5[nH]ncc45)c3c2)cc1F` [Compound 85, 6-(3,4-difluorophenyl)-N-(1H-indazol-4-yl)quinazolin-4-amine]: the IC50 in assay [1] stood at 174 nM; in assay [2], 14.2 ± 0.8 µM; in assay [3], 11.4 ± 3 µM; in assay [4] it was 23.2 ± 2 µM; in assay [5] it was 209 nM; in assay [6], 495 nM. The same molecule gave an IC50 in assay [7] of 15.9 ± 4.1 µM. In assay [1], the inhibition at 1 µM amounted to 83%.

Turning to `c1cc(Nc2ncnc3ccc(-c4ccc5c(c4)OCO5)cc23)c2cn[nH]c2c1` [Compound 96, 6-(benzo[d][1,3]dioxol-5-yl)-N-(1H-indazol-4-yl)quinazolin-4-amine], the IC50 in assay [1] worked out at 141 nM; in assay [2], 14.2 ± 2.4 µM; in assay [3] it was 7.7 ± 0.4 µM; in assay [4], 12.6 ± 1.8 µM; in assay [5], 161 nM; in assay [6], 568 nM. In addition, inhibition in assay [7] was half-maximal at 13 ± 2.4 µM (IC50). The inhibition at 1 µM in assay [1] amounted to 86.1%.

On to `NC(=O)c1cccc(-c2ccc3ncnc(Nc4cccc5[nH]ncc45)c3c2)c1` [Compound 97, 3-(4-(1H-indazol-4-ylamino)quinazolin-6-yl)benzamide], for which the IC50 in assay [1] is 112 nM; in assay [2] it was more than 50 µM; in assay [3], 24.5 ± 7.1 µM; in assay [4], 12.7 ± 2 µM; in assay [5], 151 nM; in assay [6], 584 nM. For the same molecule, half-maximal inhibition in assay [7] (IC50) was put at 12.7 ± 2.1 µM. Besides, in assay [1], the inhibition at 1 µM is 86.6%.

With `COc1ccc(-c2ccc3ncnc(Nc4cccc5[nH]ncc45)c3c2)cc1C=O` [Compound 98, 5-(4-(1H-indazol-4-ylamino)quinazolin-6-yl)-2-methoxybenzaldehyde], the concentration for half-maximal inhibition (IC50) in assay [1] is 73.9 nM; in assay [2], 12.7 ± 5.3 µM; in assay [3], 7.2 ± 0.6 µM; in assay [4] it was 9.6 ± 1.6 µM; in assay [5], 105 nM; in assay [6] it was 338 nM. The molecule also had a half-maximal inhibitory concentration (IC50) in assay [7] of 9.6 ± 1.6 µM. The inhibition at 1 µM in assay [1] came out at 92.5%.

On to `COc1cc(-c2ccc3nccc(Nc4cccc(O)c4)c3c2)ccc1O` [Compound 100, 4-(4-(3-hydroxyphenylamino)quinolin-6-yl)-2-methoxyphenol], for which the IC50 in assay [1] is 21 nM; in assay [2] it was 1.78 ± 0.2 µM; in assay [3], 1.4 ± 0.4 µM; in assay [4], 5.5 ± 0.5 µM; in assay [5], 23 nM; in assay [6] it was 136 nM. In assay [7], this molecule came in with an IC50 of 5.2 ± 0.2 µM. Also, the inhibition at 1 µM in assay [1] is 95.8%.

Regarding `COc1cc(-c2ccc3nccc(Nc4cc(O)ccc4F)c3c2)ccc1O` [Compound 101, 4-(4-(2-fluoro-5-hydroxyphenylamino)quinolin-6-yl)-2-methoxyphenol], the IC50 is 18.1 nM in assay [1]; 6.7 ± 0.1 µM in assay [2]; 2.3 ± 0.3 µM in assay [3]; 21.1 ± 3.8 µM in assay [4]; 20.9 nM in assay [5]; 96.1 nM in assay [6]. The molecule further gave an IC50 in assay [7] of 21.1 ± 3.8 µM. Besides, the inhibition at 1 µM in assay [1] worked out at 97.1%.

For `N#Cc1cccc(-c2ccc3ncnc(Nc4cccc5[nH]ncc45)c3c2)c1` [Compound 102, 3-(4-(1H-indazol-4-ylamino)quinazolin-6-yl)benzonitrile], the IC50 in assay [1] is 134 nM; in assay [2], more than 50 µM; in assay [3], more than 50 µM; in assay [4], more than 50 µM; in assay [5], 199 nM; in assay [6] it was 294 nM. Also, the IC50 in assay [7] is more than 50 µM. Further, the inhibition at 1 µM in assay [1] came out at 87%.

For the molecule `COc1cc(-c2ccc3nccc(Nc4cccc5[nH]ncc45)c3c2)ccc1O` [Compound 103, 4-(4-(1H-indazol-4-ylamino)quinolin-6-yl)-2-methoxyphenol], the IC50 in assay [1] amounted to 164 nM; in assay [2], 3.2 µM; in assay [3] it was 6.6 µM; in assay [4], 4 ± 0.2 µM; in assay [5] it was 211 nM; in assay [6] it was 354 nM. Moreover, it took 8.9 µM to reach half-maximal inhibition in assay [7] (IC50). Moreover, in assay [1], the inhibition at 1 µM stood at 85.2%.

For `CCCS(=O)(=O)Nc1cccc(-c2ccc3ncnc(Nc4cccc5[nH]ncc45)c3c2)c1` [Compound 109, N-(3-(4-(1H-indazol-4-ylamino)quinazolin-6-yl)phenyl)propane-1-sulfonamide], the IC50 was 126 nM in assay [1]; 16.9 ± 0.6 µM in assay [2]; 14.2 ± 1 µM in assay [3]; 10.1 ± 1.1 µM in assay [4]; 164 nM in assay [5]; 521 nM in assay [6]. This molecule displayed a concentration for half-maximal inhibition (IC50) in assay [7] of 13.6 ± 1.5 µM. In addition, the inhibition at 1 µM in assay [1] was 85.1%.

As for `COc1cccc(-c2ccc3nccc(Nc4cccc5[nH]ncc45)c3c2)c1F` [Compound 111, 6-(2-fluoro-3-methoxyphenyl)-N-(1H-indazol-4-yl)quinolin-4-amine], the IC50 in assay [1] came to 83.4 nM; in assay [2] it was 25.1 ± 7.1 µM; in assay [3], 36.3 ± 1.7 µM; in assay [4] it was 26.5 ± 7.3 µM; in assay [5] it was 99.9 nM; in assay [6] it was 290 nM. This molecule came in with an IC50 in assay [7] of 32.3 ± 8.5 µM. The inhibition at 1 µM in assay [1] stood at 89.1%.

In the case of `N#Cc1cccc(-c2ccc3nccc(Nc4cccc5[nH]ncc45)c3c2)c1` [Compound 114, 3-(4-(1H-indazol-4-ylamino)quinolin-6-yl)benzonitrile], the IC50 in assay [1] was 99.2 nM; in assay [2] it was 4.8 ± 1.6 µM; in assay [3], 6.3 ± 0.7 µM; in assay [4], 6.2 ± 0.6 µM; in assay [5], 123 nM; in assay [6], 287 nM. Also, in assay [7], half-maximal inhibition (IC50) required 2.6 ± 0.4 µM. Also, in assay [1], the inhibition at 1 µM is 82.3%.

Take `COc1ccc(-c2ccc3nccc(Nc4cccc5[nH]ncc45)c3c2)cc1C=O` [Compound 116, 5-(4-(1H-indazol-4-ylamino)quinolin-6-yl)-2-methoxybenzaldehyde]: the IC50 in assay [1] was found to be 99.6 nM; in assay [2] it was 6.4 ± 0.7 µM; in assay [3], 5.4 ± 0.7 µM; in assay [4], 6.2 ± 0.4 µM; in assay [5], 117 nM; in assay [6] it was 233 nM. In addition, the half-inhibitory concentration (IC50) in assay [7] is 6.3 ± 0.2 µM. In addition, the inhibition at 1 µM in assay [1] is 88.4%.
